Results: article PMC10674617, “Design, Synthesis, Evaluation and Molecular Dynamics Simulation of Dengue Virus NS5-RdRp Inhibitors” (Pharmaceuticals, 2023)
“And” between values parts separate entries of the source, which are not always exact repeats. Equal values may be shown once. Read-outs that look alike come from different tables or passages of the source.

Key:
DENV2 NGC strain = experiment: Cytopathic effect (CPE) inhibition assay; type: cell-based, Dengue virus (DENV2); conditions: for IC50: BHK-21 cells, DENV2 NGC strain, mean ± SD of two individual experiments, read-out: DENV-NGC-IC50; for SI (Selectivity Index): ratio of CC50 to IC50
Experimental: The antiviral activities of the nine synthesized compounds against DENV were assessed using the DENV2 NGC strain and BHK-21 cells via CPE inhibition assays. BCX4430, NITD008, and 27 were used as positive controls (Figure S2). […] The activity of compound SW-d was higher than that of BCX4430 and lower than that of NITD008; however, its SI was higher than those of BCX4430 and NITD008.
In cell-based antiviral assays, the DENV2 NGC strain (Sino Biological Inc., Beijing, China) and BHK-21 cells (Baby hamster kidney cell line; ATCC CCL10) were used. The viral stock was prepared by inoculating C6/36 cells (Aedes albopictus clone C6/36; ATCC CRL166) as described previously. […] The supernatant was cleared by centrifugation at 2000 g for 5 min to remove cell debris and adjusted to 20% FBS. Aliquots of the virus were stored at […]. The 50% tissue culture infective dose (TCID50) was determined using the Promega Viral ToxGlo assay (Fisher Scientific, Ottawa, ON, Canada) in BHK-21 cells, according to the manufacturer’s instructions. Cell-based assays for the evaluation of antiviral activity against DENV were performed as described previously with modifications, using the Viral ToxGlo assay (Fisher Scientific, Ottawa, ON, Canada) according to the manufacturer’s instructions. Briefly, BHK-21 cells were plated in 96-well plates at 2500 cells/well in Dulbecco’s modified Eagle’s medium (DMEM) containing 10% FBS and 1% penicillin-streptomycin. Cells were incubated at 37 °C overnight and infected with 100 TCID50 of DENV for 90 min. The medium was replaced with DMEM containing 2.5% FBS and varying concentrations of the test compounds. Cell cultures were maintained at 37 °C in a 5% CO2 incubator for 3 days. The Viral Tox reagent was freshly prepared, and 100 μL of the reagent was added to each well. The plates were incubated for at least 10 min and then quantified using a 1450 MicroBeta TriLux microplate scintillation and luminescence counter (PerkinElmer, Waltham, MA, USA). For the off-target cytotoxicity assay, the test compounds were processed as described above, except without DENV infection of the cells. The luminescence readings were plotted against the log transformation of the concentration of the compound. Data were analyzed by nonlinear regression using GraphPad Prism 5.0 software (GraphPad Software, San Diego, CA, USA).

DENV RdRp = system: DENV RdRp; set-up: method as in PMID 26984786, PMID 27500641; conditions: against all clinically relevant dengue virus serotypes; cited from earlier work
DENV2 RdRp = target: T1, DENV2 RdRp (Dengue virus type 2, UniProt P14340); experiment: DENV biochemical enzyme assay; conditions: mean ± SD of two individual experiments
T1 construct: 100 nM of DENV2 full-length NS5 enzyme
Experimental: The inhibitory activities of compounds SW-b and SW-d against DENV-2 RdRp were assessed using in vitro enzyme inhibition assays. Compounds 3′-dATP, BCX4430, and NITD008 were used as controls. […] This confirmed the reliability of the DENV2 RdRp inhibitory activity assay.
Additionally, it contained 20 μM ATP, 20 μM GTP, 20 μM UTP, 5 μM ATTO-CTP, and 100 nM of DENV2 full-length NS5 enzyme. These were all suspended in a solution consisting of 50 mM Tris/HCl at pH 7.5, 10 mM KCl, 1 mM MgCl2, 0.3 mM MnCl2, 0.001% Triton-X-100, and 10 μM cysteine. Five compounds, with concentrations ranging from 0 to 20 or 100 μM, were serially diluted 2-fold into 384-well white opaque plates (Corning Costar, New York, NY, USA), resulting in a final volume of 5 μL. Subsequently, 5 μL of the enzyme in a 1× assay buffer was added to their respective wells. The plate was incubated at room temperature for 15 min, after which 5 μL of a mixture containing RNA and NTPs was introduced to initiate the reactions. After a reaction time of 120 min, the process was terminated by adding 10 μL of a 2.5× STOP buffer, comprising 200 mM NaCl, 25 mM MgCl2, and 1.5 M DEA adjusted to pH 10 using […]. Additionally, 25 nM of calf intestinal alkaline phosphatase (NEB) was introduced. The mixture was allowed to incubate at room temperature for an additional 60 min. To quantify the results, a Tecan Saffire II microplate reader was employed, with excitation max and emission max wavelengths set at 422 nm and 566 nm, respectively. All data points were analyzed in duplicate wells. Finally, the IC50 values were determined using a nonlinear regression curve fit for a sigmoidal dose–response (variable slope) in GraphPad Prism version 3.02 (GraphPad Prism, Inc., San Diego, CA).

Cytotoxicity assay = type: cell-based; conditions: dog
MDCK cells = experiment: Cytotoxicity assay; type: cell-based; conditions: cytotoxicity, MDCK cells
[1] = Dengue virus, DENV2, BHK-21, CPE inhibition

| SMILES | IC50 (DENV2 NGC strain; [1]) | CC50 at 3 days (Cytotoxicity assay) | further results |
| --- | --- | --- | --- |
| COc1cc(C)c(C(=O)NS(=O)(=O)c2cccc3cccnc23)cc1-c1ccc(C#CCO)s1 [Compound 27, reference compound] | 19.7 ± 1.12 µM |  | IC50 (DENV RdRp): 0.013 to 0.074 µM |
| Nc1ncnc2c1ncn2[C@@H]1O[C@H](COP(=O)(O)OP(=O)(O)OP(=O)(O)O)C[C@H]1O [3′-dATP, reference compound] |  |  | IC50 (DENV2 RdRp): 30.1 ± 8.26 µM |
| COc1cc(C)c(S(=O)(=O)NC(=O)c2ccc(C)c(Nc3nc(C)nc4c3CCC4)c2)cc1-c1ccc(C#CCO)s1 [SW-d] | 23.9 ± 1 µM | 134 µM | IC50 (DENV2 RdRp): 13.5 ± 0.32 µM; SI (Selectivity Index) (DENV2 NGC strain): 5.58 |
| COc1cc(C)c(S(=O)(=O)NC(=O)c2ccc(C)s2)cc1-c1ccc(C#CCO)s1 [SW-g] | > 200 µM |  |  |
| COc1cc(C)c(S(=O)(=O)NC(=O)c2ccc3c(c2)C(=O)N(c2cccc(C)c2)C3=O)cc1-c1ccc(C#CCO)s1 [SW-f] | 53.8 ± 4.53 µM | > 200 µM | SI (Selectivity Index) (DENV2 NGC strain): >3.72 |
| COc1cccc(C(=O)NS(=O)(=O)c2cc(-c3ccc(C#CCO)s3)c(OC)cc2C)c1 [SW-a] | 57.6 ± 2.37 µM |  |  |
| COc1cc(C)c(S(=O)(=O)NC(=O)C(C)Oc2ccc3c4c(c(=O)oc3c2)CCCC4)cc1-c1ccc(C#CCO)s1 (stereo not drawn) [SW-b] | 3.58 ± 0.29 µM | 24.7 µM | IC50 (DENV2 RdRp): 11.5 ± 1.3 µM; SI (Selectivity Index) (DENV2 NGC strain): 6.89 |
| Nc1ncnc2c([C@@H]3N[C@H](CO)[C@@H](O)[C@H]3O)c[nH]c12 [BCX4430, reference compound] |  | 100 µM | SI (Selectivity Index) (DENV2 NGC strain): 2.40 |
| C#C[C@@]1(O)[C@H](O)[C@@H](CO)O[C@H]1n1ccc2c(N)ncnc21 [NITD008, reference compound] |  |  | IC50 (DENV2 NGC strain; CPE inhibition): 41.6 µM and 15.5 µM; CC50 (MDCK cells): 20 µM |
| COc1cccc(S(=O)(=O)NC(=O)c2cc(-c3ccc(C#CCO)s3)c(OC)cc2OC)c1 [Compound 29] |  |  | IC50 (DENV RdRp): 0.048 to 0.172 µM |
| COc1cc(C)c(S(=O)(=O)NC(=O)C2CC(=O)N(c3ccc(Cl)c(Cl)c3)C2)cc1-c1ccc(C#CCO)s1 (stereo not drawn) [SW-e] | > 200 µM | 69.9 µM |  |
| COc1cc(C)c(S(=O)(=O)NC(=O)Cn2nc(C)cc2C)cc1-c1ccc(C#CCO)s1 [SW-i] | > 200 µM |  |  |
| COc1cc(C)c(S(=O)(=O)NC(=O)c2ccc(-n3c(C)ccc3C)cc2)cc1-c1ccc(C#CCO)s1 [SW-c] | 41.5 ± 1.37 µM | > 200 µM |  |
| COc1cc(C)c(S(=O)(=O)NC(=O)c2ccncn2)cc1-c1ccc(C#CCO)s1 [SW-h] | > 200 µM |  |  |
